Results published in US8569372B2, “Method for preventing or treating a disease, disorder or condition induced by retina ischemia” (priority 2011, dated 2013).

Columns and labels:
[1] = tested on: cholinergic amacrine cells (ChAT immunoreactivity); test: ChAT immunofluorescence of the retina after ischaemia/reperfusion; assay type: in vivo, Wistar rats; conditions: 100 μM SAC pre-treatment
Procedure: The rats (200-250 g) were anaesthetized and placed in a stereotaxic frame. The anterior chamber of one eye was cannulated with a 30-gauge needle connected to a 0.9% saline reservoir; this caused a high IOP (HIOP) of 120 mmHg for 60 minutes. Eye fundus whitening and a low ERG response confirmed induction of an ischaemic insult. A sham procedure was carried out on the controls. Drug administration involved the pre-administration (15-minute before 60-minute HIOP induced retinal ischaemia) of SAC (25, 50, 100 μM) or vehicle (saline; control). The ischemic eye of each test rat was treated with or without a single intravitreous injection of 5 μl of the test compound. In addition, SAC (100 μM) was administered to the non-ischaemic eye (normal) to see whether SAC has any adverse effects. In both cases, the paired normal eye was untreated. The rats were sacrificed and intracardially perfused with 0.9% normal saline (w/v). Then the rat retinas were removed, fixed with 4% (w/v) paraformaldehyde for 45 minutes and then transferred to 30% sucrose for cryosectioning. Sampling was carried out one or seven days after the sham-operation or induction of retinal ischaemia. […] The retinal sections were examined using a fluorescence microscope (Olympus BX61, Center Valley, Pa., USA).

Thy-1 mRNA = test: Real-time PCR of retinal mRNA after ischaemia/reperfusion: Thy-1; assay type: in vivo, Wistar rats; conditions: 100 μM SAC pre-treatment, 24 hours after I/R; control 3.28±1.09, vehicle 0.29±0.07; n=6
Procedure: The rats (200-250 g) were anaesthetized and placed in a stereotaxic frame. The anterior chamber of one eye was cannulated with a 30-gauge needle connected to a 0.9% saline reservoir; this caused a high IOP (HIOP) of 120 mmHg for 60 minutes. Eye fundus whitening and a low ERG response confirmed induction of an ischaemic insult. A sham procedure was carried out on the controls. Drug administration involved the pre-administration (15-minute before 60-minute HIOP induced retinal ischaemia) of SAC (25, 50, 100 μM) or vehicle (saline; control). The ischemic eye of each test rat was treated with or without a single intravitreous injection of 5 μl of the test compound. […] The levels of Thy-1, HIF-1 Alpha, VEGF and MMP-9 mRNAs present in the retinas were determined using a real-time PCR technique. […] Relative quantification (a comparative method) was performed using the house keeping gene Beta-actin as the internal standard. This process allows the normalized quantification of the mRNA target (Ct) and takes into account the differences in the amount of total RNA added to each reaction (ΔCt). The relative HIF-1 Alpha/VEGF/MMP-9 expression changes were calculated as fold changes relative to the control with respect to the calibrator (ΔΔCt), which was represented by the control retina. […] The data obtained for each treatment were pooled, and a total percentage change relative to the control was calculated. […]

C=CCSC[C@H](N)C(=O)O [SAC, S-allyl L-cysteine]
ChAT immunopositive amacrine cell bodies per field ([1]; 1 day after I/R, sham 39±3, vehicle 14±1): 26±2 per field
ChAT immunopositive amacrine cell bodies per field ([1]; 7 days after I/R, sham 38±3, vehicle 10±5): 24±5 per field
Thy-1:β-actin mRNA ratio in the retina (Thy-1 mRNA): 1.25±0.30
